According to patent US8420682B2, “N-phenylacetamide derivatives, which inhibit the enzyme SOAT-1, and pharmaceutical and cosmetic compositions containing them” (Galderma Research & Development, priority 2009, dated 2013):

Molecular target: T1, enzyme ACAT-1 (Homo sapiens, UniProt P35610)
T1 construct: endogenous in cells; host or cells: HepG2
T1 sequence (P35610 1-550): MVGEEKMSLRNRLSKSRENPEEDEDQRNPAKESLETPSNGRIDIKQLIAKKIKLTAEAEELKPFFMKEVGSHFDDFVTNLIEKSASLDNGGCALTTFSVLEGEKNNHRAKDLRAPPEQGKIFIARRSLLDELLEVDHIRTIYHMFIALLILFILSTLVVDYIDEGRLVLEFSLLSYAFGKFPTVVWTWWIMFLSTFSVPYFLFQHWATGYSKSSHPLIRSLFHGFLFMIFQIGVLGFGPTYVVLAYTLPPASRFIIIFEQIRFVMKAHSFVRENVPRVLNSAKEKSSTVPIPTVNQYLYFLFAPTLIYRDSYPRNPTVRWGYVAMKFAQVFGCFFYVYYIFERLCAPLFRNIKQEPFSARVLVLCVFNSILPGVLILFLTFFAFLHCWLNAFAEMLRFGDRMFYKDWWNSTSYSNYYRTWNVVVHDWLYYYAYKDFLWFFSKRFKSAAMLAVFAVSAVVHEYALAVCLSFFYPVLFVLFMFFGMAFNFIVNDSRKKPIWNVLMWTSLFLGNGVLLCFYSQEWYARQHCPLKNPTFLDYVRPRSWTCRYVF
Experiment: HepG2 NBD-cholesterol fluorescence test for inhibitory activity towards the enzyme ACAT-1 (SOAT-1)
Type: cell-based
Details: HepG2 cells, NBD-cholesterol 1 μg/ml, incubation 6 hours at 37° C., fluorescence read (excitation 490 nm, emission 540 nm)
Experimental: The compounds (I) according to the invention, and also the pharmaceutically acceptable salts, solvates and/or hydrates thereof, have inhibitory properties on the enzyme SOAT-1. This inhibitory activity on the enzyme SOAT-1 is measured according to a HepG2 primary […] test, as described in Example 7.
The compounds of formula (I) according to the invention were subjected to a test for evaluating their inhibitory activity towards the enzyme ACAT-1, inspired by the following publication: “Identification of ACAT1- and ACAT2-specific inhibitors using a novel, cell based fluorescence assay: individual ACAT uniqueness”, J. Lipid. Res. (2004) vol. 45, pages 378-386.
The principle of this test is based on the use of NBD-cholesterol, a cholesterol analogue whose fluorescence depends on its environment. When this molecule is in a polar environment, it is weakly fluorescent, whereas in a non-polar environment it is strongly fluorescent. Free NBD-cholesterol becomes inserted in cell membranes and is weakly fluorescent in this polar environment. When NBD-cholesterol is esterified with ACAT, the NBD-cholesterol ester enters non-polar lipid droplets and is then strongly fluorescent.
The method below is applied: HepG2 cells are incubated in the presence of NBD-cholesterol (1 μg/ml) and of the test compound of formula (I) in black transparent-bottomed 96-well plates, at a rate of 30 000 cells per well. After incubation for 6 hours at 37° C. under 5% CO2, the medium is removed by turning upside-down and the cells are washed with twice 100 μl of PBS. After addition of 50 μl of lysis buffer (10 mM NaPO4, 1% Igepal), the plates are shaken for 5 minutes and the fluorescence is read (excitation at 490 nm, emission at 540 nm) on a Fusion machine (Perkin-Elmer).

IC50 [nM]	SMILES
2.4	CCOC(=O)c1ccc(N2C(=O)N(CC(=O)Nc3c(C(C)C)cccc3C(C)C)C(=O)C23CCCCC3)cc1 [Compound 1, 4-{3-[(2,6-Diisopropylphenylcarbamoyl)-methyl]-2,4-dioxo-1,3-diazaspiro[4.5]dec-1-yl}benzoic acid ethyl ester]
77	CC(C)c1cccc(C(C)C)c1NC(=O)CN1C(=O)N(c2ccc(C#N)cc2)C2(CCCCC2)C1=O [Compound 2, 2-[1-(4-Cyanophenyl)-2,4-dioxo-1,3-diaza-spiro[4.5]dec-3-yl]-N-(2,6-diisopropylphenyl)acetamide]
2.5	Cc1ccc(N2C(=O)N(CC(=O)Nc3c(C(C)C)cccc3C(C)C)C(=O)C23CCCCC3)cc1C#N [Compound 3, 2-[1-(3-cyano-4-methylphenyl)-2,4-dioxo-1,3-diaza-spiro[4.5]dec-3-yl]-N-(2,6-diisopropylphenyl)acetamide]
1.5	CSc1ccc(N2C(=O)N(CC(=O)Nc3c(C(C)C)cccc3C(C)C)C(=O)C23CCCCC3)cc1 [Compound 4, N-(2,6-diisopropylphenyl)-2-[1-(4-methylsulfanyl-phenyl)-2,4-dioxo-1,3-diazaspiro[4.5]dec-3-yl]acetamide]
31	CC(C)c1cccc(C(C)C)c1NC(=O)CN1C(=O)N(c2ccc(S(C)(=O)=O)cc2)C2(CCCCC2)C1=O [Compound 5, N-(2,6-Diisopropylphenyl)-2-[1-(4-methanesulfonylphenyl)-2,4-dioxo-1,3-diaza-spiro[4.5]dec-3-yl]acetamide]
